According to the supplement of paper PMC10307832:

Columns and labels:
Assay in all cases: relative viability (nuclei count vs DMSO), 5 days (fraction); higher = more cells survive
[1] = compound: CN(c1ncccc1CNc1nc(Nc2ccc3c(c2)CC(=O)N3)ncc1C(F)(F)F)S(C)(=O)=O + Nc1ncn([C@H]2C[C@H](O)[C@@H](CO)O2)c(=O)n1 [Decitabine] (partner 2 µM)
In short: (§1)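 After 5 days of treatment, lung cancer cells in 1536-well plates were fixed and stained in a single step (final 0.05% Triton X-100, 1% formaldehyde, 1 ug/ml Hoechst) and their nuclei counted on 4× images. Treatment had been applied by pin tool the day after seeding as one drug alone or as a fixed anchor-drug dose with five library-drug doses (not always all listed) in √10 steps. Relative viability is the nuclei count of treated wells divided by that of vehicle wells, and values are medians of duplicate plates.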

[2] = compound: CN(c1ncccc1CNc1nc(Nc2ccc3c(c2)CC(=O)N3)ncc1C(F)(F)F)S(C)(=O)=O + CCNC(=O)c1noc(-c2cc(C(C)C)c(O)cc2O)c1-c1ccc(CN2CCOCC2)cc1 [Luminespib] (partner 0.01 µM)
In short: as §1

[3] = compound: CN(c1ncccc1CNc1nc(Nc2ccc3c(c2)CC(=O)N3)ncc1C(F)(F)F)S(C)(=O)=O + O=C(c1cc(Cc2n[nH]c(=O)c3ccccc23)ccc1F)N1CCN(C(=O)C2CC2)CC1 [Olaparib] (partner 8 µM)
In short: as §1

[4] = compound: CN(c1ncccc1CNc1nc(Nc2ccc3c(c2)CC(=O)N3)ncc1C(F)(F)F)S(C)(=O)=O + CS(=O)(=O)CCNCc1ccc(-c2ccc3ncnc(Nc4ccc(OCc5cccc(F)c5)c(Cl)c4)c3c2)o1 [Lapatinib] (partner 2 µM)
In short: as §1

Cell Line | relative viability ([1]; first compound 0.01 µM) | relative viability ([1]; first compound 0.03162 µM) | relative viability ([1]; first compound 0.1 µM) | relative viability ([1]; first compound 0.3162 µM) | relative viability ([1]; first compound 1 µM) | relative viability ([2]; first compound 0.01 µM) | relative viability ([2]; first compound 0.03162 µM) | relative viability ([2]; first compound 0.1 µM) | relative viability ([2]; first compound 0.3162 µM) | relative viability ([2]; first compound 1 µM) | relative viability ([3]; first compound 0.01 µM) | relative viability ([3]; first compound 0.03162 µM) | relative viability ([3]; first compound 0.1 µM) | relative viability ([3]; first compound 0.3162 µM) | relative viability ([3]; first compound 1 µM) | relative viability ([4]; first compound 0.01 µM) | relative viability ([4]; first compound 0.03162 µM) | relative viability ([4]; first compound 0.1 µM) | relative viability ([4]; first compound 0.3162 µM) | relative viability ([4]; first compound 1 µM)
NCI-H2087 | 0.312 | 0.255 | 0.256 | 0.36 | 0.299 | 0.164 | 0.239 | 0.162 | 0.185 | 0.185 | 0.634 | 0.639 | 0.614 | 0.464 | 0.668 | 1.44 | 1.12 | 0.876 | 0.927 | 0.893
LU99A | 0.959 | 0.996 | 0.907 | 0.874 | 0.913 | 0.316 | 0.264 | 0.323 | 0.325 | 0.246 | 0.26 | 0.305 | 0.302 | 0.261 | 0.236 | 0.971 | 1.19 | 1.01 | 1.17 | 1.08
NCI-H1355 | 0.368 | 0.36 | 0.337 | 0.404 | 0.379 | 0.713 | 0.723 | 0.645 | 0.624 | 0.65 | 0.7 | 0.784 | 0.713 | 0.691 | 0.669 | 1.03 | 1.04 | 0.985 | 0.919 | 0.873
NCI-H520 | 0.549 | 0.655 | 0.484 | 0.49 | 0.549 | 0.209 | 0.242 | 0.205 | 0.2 | 0.183 | 0.325 | 0.318 | 0.35 | 0.394 | 0.423 | 0.917 | 1.02 | 0.845 | 0.838 | 1.04
NCI-H661 | 0.551 | 0.649 | 0.589 | 0.56 | 0.568 | 0.854 | 0.928 | 0.837 | 0.871 | 0.876 | 0.727 | 0.85 | 0.74 | 0.771 | 0.7 | 0.481 | 0.496 | 0.652 | 0.534 | 0.637
NCI-H650 | 0.316 | 0.351 | 0.342 | 0.285 | 0.307 | 0.773 | 0.779 | 0.655 | 0.728 | 0.654 | 0.372 | 0.376 | 0.389 | 0.367 | 0.358 | 0.977 | 0.971 | 0.813 | 0.703 | 0.992
NCI-H647 | 0.425 | 0.51 | 0.498 | 0.544 | 0.502 | 0.127 | 0.163 | 0.122 | 0.103 | 0.119 | 0.528 | 0.494 | 0.708 | 0.597 | 0.488 | 1.19 | 1.3 | 1.11 | 1.04 | 1.03
201T | 0.846 | 0.856 | 0.808 | 0.85 | 0.771 | 1.05 | 1 | 0.945 | 0.986 | 0.951 | 0.827 | 0.887 | 0.814 | 0.776 | 0.779 | 1.08 | 1 | 0.962 | 0.924 | 0.988
